≈ marks a conversion by molar mass, not a printed value. Where a name gives a salt, the structure may show the parent alone. Read-outs that look alike come from different tables or passages of the source.
Key:
[1] = system: Gram-negative bacteria; experiment: Antibacterial activity against tested Gram-negative strains (summary in words); type: cell-based; details: tested strains of Gram-negative bacteria
Experimental: (§1) General Methods. All solvents and reagents were obtained from commercial sources and used without further purification unless otherwise stated. General methods of purification of compounds involved the use column chromatography with silica gel (230-400 mesh) purchased from Silicycle, Quebec City, Canada. The reactions were monitored by TLC on precoated Merck 60 F254 silica gel plates and visualized using UV light (254 nm).
(§2) Antibacterial assays were performed using iron depleted media as described previously (J. Med. Chem. 2017, 60, 4577).

[2] = system: strong β-lactamase producing strains of P. aeruginosa (ARC 3502 and ARC 3506); experiment: Antibacterial activity, alone and in combination with tazobactam; type: cell-based; details: co-administration with tazobactam
Experimental: as §1, §2

[3] = system: A. baumannii ATCC 17978-PNT-320; experiment: MIC antibacterial assay (iron depleted media); type: cell-based, Acinetobacter baumannii
Experimental: as §1, §2

[4] = system: A. baumannii ATCC BAA 1793; experiment: MIC antibacterial assay (iron depleted media); type: cell-based, Acinetobacter baumannii
Experimental: as §1, §2

[5] = system: A. baumannii ARC 5079; experiment: MIC antibacterial assay (iron depleted media); type: cell-based, Acinetobacter baumannii
Experimental: as §1, §2

[6] = system: A.baumannii ISR14-005; experiment: MIC antibacterial assay (iron depleted media); type: cell-based, Acinetobacter baumannii
Experimental: as §1, §2

[7] = system: A. baumannii ATCC BAA 1797; experiment: MIC antibacterial assay (iron depleted media); type: cell-based; details: Acinetobacter baumannii, BAA1797
Experimental: as §1, §2

[8] = system: Citrobacter freuendii ATCC 29063; experiment: MIC antibacterial assay (iron depleted media); type: cell-based; details: ATCC29063
Experimental: as §1, §2

[9] = system: Proteus mirabilis X235; experiment: MIC antibacterial assay (iron depleted media); type: cell-based
Experimental: as §1, §2

[10] = system: S. aureus SG 511; experiment: MIC antibacterial assay (iron depleted media); type: cell-based; details: Staphylococcus aureus, SG511
Experimental: as §1, §2

[11] = system: B. dolosa AU0018; experiment: MIC antibacterial assay (iron depleted media); type: cell-based; details: Burkholderia dolosa
Experimental: as §1, §2

[12] = system: P. aeruginosa 01; experiment: MIC antibacterial assay (iron depleted media); type: cell-based; details: Pseudomonas aeruginosa
Experimental: as §1, §2

[13] = system: A. baumannii ATCC 17961; experiment: MIC antibacterial assay (iron depleted media); type: cell-based; details: Acinetobacter baumannii, ATCC17961
Experimental: as §1, §2

[14] = system: E. coli DCO; experiment: MIC antibacterial assay (iron depleted media); type: cell-based; details: Escherichia coli
Experimental: as §1, §2

[15] = system: A. baumannii ATCC17978-PNT-165; experiment: MIC antibacterial assay (iron depleted media); type: cell-based; details: Acinetobacter baumannii
Experimental: as §1, §2

[16] = system: Salmonella typhimurium ATCC13311; experiment: MIC antibacterial assay (iron depleted media); type: cell-based; details: Salmonella enterica
Experimental: as §1, §2

[17] = system: P. aeruginosa ISR-14-004; experiment: MIC antibacterial assay (iron depleted media); type: cell-based
Experimental: as §1, §2

[18] = system: P. aeruginosa ISR-14-003; experiment: MIC antibacterial assay (iron depleted media); type: cell-based
Experimental: as §1, §2

[19] = system: P. aeruginosa ARC 3506; experiment: MIC antibacterial assay (iron depleted media); type: cell-based; details: Pseudomonas aeruginosa, ARC3506
Experimental: as §1, §2

[20] = system: Enterobacter aerogenes X816; experiment: MIC antibacterial assay (iron depleted media); type: cell-based; details: Klebsiella aerogenes
Experimental: as §1, §2

[21] = system: P. aeruginosa KW799/wt; experiment: MIC antibacterial assay (iron depleted media); type: cell-based; details: Pseudomonas aeruginosa
Experimental: as §1, §2

[22] = system: panel of Gram-negative and Gram-positive bacteria; experiment: Antibacterial activity against a panel of bacteria; type: cell-based
Experimental: as §1, §2

[23] = system: P. aeruginosa ARC 3502; experiment: MIC antibacterial assay (iron depleted media); type: cell-based; details: Pseudomonas aeruginosa, read-out: MIC
Experimental: as §1, §2

[24] = system: A. baumannii ATCC BAA 1800; experiment: MIC antibacterial assay (iron depleted media); type: cell-based, Acinetobacter baumannii; details: tazobactam alone @ 10 μg/ml
Experimental: as §1, §2

[25] = Acinetobacter baumannii, ATCC17978
[26] = Acinetobacter baumannii, ISR14005, A. baumannii ISR14-005 (clinical isolate), compound alone, MH2 broth with 160 μM bipyridyl added, read-out: MIC
[27] = Citrobacter freuendii ATCC 29063, MH2 broth with 160 μM bipyridyl added, read-out: MIC
[28] = Proteus mirabilis X235, MH2 broth with 160 μM bipyridyl added, read-out: MIC
[29] = S. aureus SG 511, MH2 broth with 160 μM bipyridyl added, read-out: MIC
[30] = B. dolosa AU0018, MH2 broth with 160 μM bipyridyl added, read-out: MIC
[31] = P. aeruginosa 01, MH2 broth with 160 μM bipyridyl added, read-out: MIC
[32] = E. coli DCO, MH2 broth with 160 μM bipyridyl added, read-out: MIC
[33] = Salmonella typhimurium ATCC13311, MH2 broth with 160 μM bipyridyl added, read-out: MIC
[34] = Pseudomonas aeruginosa, ISR14004, P. aeruginosa ISR-14-004 (clinical isolate), compound alone, MH2 broth with 160 μM bipyridyl added, read-out: MIC
[35] = Pseudomonas aeruginosa, ISR14003, P. aeruginosa ISR-14-003 (clinical isolate), compound alone, MH2 broth with 160 μM bipyridyl added, read-out: MIC
[36] = Enterobacter aerogenes X816, MH2 broth with 160 μM bipyridyl added, read-out: MIC
[37] = P. aeruginosa KW799/wt, MH2 broth with 160 μM bipyridyl added, read-out: MIC

CC(C)(O/N=C(\C(=O)NC1C(=O)N(S(=O)(=O)O)[C@H]1CSCCN)c1cnc(N)s1)C(=O)O (mixture of isomers) [Compound 39, (E)-3-(2-(2-aminothiazol-5-yl)-2-(((2-carboxypropan-2-yl)oxy)imino)acetamido)-2-(((2-ammonioethyl)thio)methyl)-4-oxoazetidine-1-sulfonate, potassium salt]
antibacterial activity (in words) [1]: generally improved activity
effect of combination with tazobactam on activity (in words) [2]: no improvement
MIC [3, 25]: > 50 µM
MIC ([4]; Acinetobacter baumannii, BAA1793): 50 µM
MIC ([5]; Acinetobacter baumannii, ARC5079): > 50 µM
MIC ([6]; Acinetobacter baumannii, ISR14005): > 50 µM
MIC [7]: 50 µM
MIC ([8]; Citrobacter): 3 µM
MIC ([9]; Proteus mirabilis, X235): 3 µM
MIC [10]: > 50 µM
MIC ([11]; AU0018): > 50 µM
MIC [12]; 01: > 50 µM
MIC [13]: > 50 µM
MIC [14]: 6 µM
MIC [15]: 50 µM
MIC [16]: 4.5 µM
MIC ([17]; Pseudomonas aeruginosa, ISR14004): > 50 µM
MIC ([18]; Pseudomonas aeruginosa, ISR14003): > 50 µM
MIC [19]: > 50 µM
MIC ([20]; X816): 9.4 µM
MIC ([21]; KW799/WT): > 50 µM

C[C@H]1[C@H](NC(=O)/C(=N\OC(C)(C)C(=O)O)c2csc(N)n2)C(=O)N1S(=O)(=O)O [Aztreonam, aztreonam, reference compound]
effect of combination with tazobactam on activity (in words) [2]: minimal effects
MIC [3, 25]: 50 µM
MIC ([5]; Acinetobacter baumannii, ARC5079, A. baumannii ARC 5079, compound alone, MH2 broth with 160 μM bipyridyl added, read-out: MIC): 25 to 50 µM
MIC [6, 26]: > 50 µM
MIC ([6]; Acinetobacter baumannii, ISR14005, A. baumannii ISR14-005 (clinical isolate), in combination with tazobactam, read-out: MIC (+tazo)): 50 µM
MIC [8, 27]: 0.1 µM (≈ 0.0435 µg/mL)
MIC [9, 28]: 0.05 µM (≈ 0.0218 µg/mL)
MIC [10, 29]: > 50 µM
MIC [11, 30]: > 50 µM
MIC [12, 31]: 3 µM (≈ 1.31 µg/mL)
MIC [14, 32]: 0.1 µM (≈ 0.0435 µg/mL)
MIC [15]: 12.5 µM (≈ 5.44 µg/mL)
MIC [16, 33]: 0.1 µM (≈ 0.0435 µg/mL)
MIC [17, 34]: 50 µM
MIC ([17]; Pseudomonas aeruginosa, ISR14004, P. aeruginosa ISR-14-004 (clinical isolate), in combination with tazobactam, read-out: MIC (+tazo)): 0.4 µM
MIC [18, 35]: 6 µM
MIC ([18]; Pseudomonas aeruginosa, ISR14003, P. aeruginosa ISR-14-003 (clinical isolate), in combination with tazobactam, read-out: MIC (+tazo)): 3 µM
MIC [20, 36]: 0.2 µM (≈ 0.0871 µg/mL)
MIC [21, 37]: 1.6 µM (≈ 0.697 µg/mL)

COC(=O)CSCC1C(NC(=O)Cc2ccccc2)C(=O)N1S(=O)(=O)[O-].[K+] (stereo not shown) [Compound 24, Potassium 2-(((2-methoxy-2-oxoethyl)thio)methyl)-4-oxo-3-(2-phenylacetamido) azetidine-1-sulfonate]
antibacterial activity (in words) ([22]; panel of Gram-negative and Gram-positive bacteria): not active
antibacterial activity (MIC) ([22]; tested strains): > 50 µM

CO/N=C(\C(=O)NC1C(=O)N(S(=O)(=O)O)[C@H]1CSCCN)c1cnc(N)s1 (stereo partly shown) [Compound 35, (E)-3-(2-(2-aminothiazol-5-yl)-2-(methoxyimino)acetamido)-2-(((2-ammonioethyl)thio)methyl)-4-oxoazetidine-1-sulfonate, potassium salt]
antibacterial activity (in words) [1]: moderately active
MIC [6, 26]: > 50 µM
MIC ([7]; A. baumannii ATCC BAA 1797, MH2 broth with 160 μM bipyridyl added, read-out: MIC): > 50 µM
MIC [8, 27]: 12.5 µM
MIC [9, 28]: 12.5 µM
MIC [10, 29]: > 50 µM
MIC ([23]; ARC3502, compound alone, MH2 broth with 160 μM bipyridyl added): > 50 µM
MIC [12, 31]: > 50 µM
MIC ([13]; A. baumannii ATCC 17961, MH2 broth with 160 μM bipyridyl added, read-out: MIC): 50 µM
MIC [14, 32]: 25 µM
MIC [15]: 50 µM
MIC [16, 33]: 12.5 µM
MIC [17, 34]: > 50 µM
MIC [18, 35]: > 50 µM
MIC ([19]; P. aeruginosa ARC 3506, compound alone, MH2 broth with 160 μM bipyridyl added, read-out: MIC): > 50 µM
MIC [20, 36]: 0.2 µM
MIC [21, 37]: > 50 µM

C[C@]1(Cn2ccnn2)[C@H](C(=O)O)N2C(=O)C[C@H]2S1(=O)=O [Tazobactam, tazobactam, reference compound]
MIC [3, 25]: < 10 µg/mL
inhibition ([4]; A. baumannii ATCC BAA 1793, tazobactam alone @ 10 μg/ml): very slight
MIC ([5]; Acinetobacter baumannii, ARC5079, A. baumannii ARC 5079, tazobactam alone, read-out: MIC): > 10 µg/mL
inhibition [24]: very slight
MIC ([6]; Acinetobacter baumannii, ISR14005, A. baumannii ISR14-005, tazobactam alone, read-out: MIC): > 20 µg/mL
MIC [11, 30]: > 50 µM
MIC ([23]; ARC3502, tazobactam alone): > 10 µg/mL
MIC ([17]; Pseudomonas aeruginosa, ISR14004, P. aeruginosa ISR-14-004, tazobactam alone, read-out: MIC): > 20 µg/mL
MIC ([18]; Pseudomonas aeruginosa, ISR14003, P. aeruginosa ISR-14-003, tazobactam alone, read-out: MIC): > 20 µg/mL
MIC ([19]; P. aeruginosa ARC 3506, tazobactam alone, read-out: MIC): > 10 µg/mL

Polymixin B [reference compound]
antibacterial activity (in words) [1]: excellent activity
MIC ([3]; A. baumannii ATCC 17978-PNT-320 (cephalosporinase producing organism), MH2 broth with 160 μM bipyridyl added): <0.025 µM
MIC ([4]; A. baumannii ATCC BAA 1793, MH2 broth with 160 μM bipyridyl added): <0.025 µM
MIC ([5]; A. baumannii ARC 5079, compound alone, MH2 broth with 160 μM bipyridyl added): <0.025 to 0.1 µM
MIC ([6]; A. baumannii ISR14-005 (clinical isolate), compound alone, MH2 broth with 160 μM bipyridyl added, read-out: MIC): <0.025 µM
MIC ([17]; P. aeruginosa ISR-14-004 (clinical isolate), compound alone, MH2 broth with 160 μM bipyridyl added, read-out: MIC): 0.05 µM
MIC ([18]; P. aeruginosa ISR-14-003 (clinical isolate), compound alone, MH2 broth with 160 μM bipyridyl added, read-out: MIC): 0.1 µM

From patent US11400079B2, “Antibacterial monobactams” (University of Notre Dame du Lac, priority 2017, dated 2022)
